# Source: publication PMC9774897 (Antibiotics, 2022)
# Like-named read-outs stand apart in the source and are kept apart here. Residues, ends and D or L forms follow the SMILES beside them.
# Experiments:
# [1] = tested on: M. tuberculosis; conditions: Kinetic killing assay; ref [22]; cited from earlier work
# Excerpt: Table 6 The general characteristics and the previously reported MIC of each antimicrobial peptide used in this study. | column: MIC (µg/mL)
# [2] = tested on: M. tuberculosis H37Rv; test: Checkerboard assay (REMA read-out); assay type: cell-based, Mycobacterium tuberculosis; conditions: for MIC: Mycobacterium tuberculosis, H37RV, 168 h, checkerboard, agent alone; for MIC / MIC, Combined: REMA read-out, 7 days
# [3] = tested on: M. tuberculosis H37Rv; parameters: method as in PMID 32750539, PMID 29900893; conditions: previous reports; ref [30],[31]; cited from earlier work
# [4] = tested on: M. tuberculosis H37Rv; conditions: 3 h, 100 µg/mL
# [5] = tested on: M. tuberculosis; conditions: cited from earlier work
structure (smiles),measurement,setting,value
CC(C)C[C@H](NC(=O)[C@H](CC(C)C)NC(=O)[C@H](CCCCN)NC(=O)[C@H](CCCCN)NC(=O)[C@@H](NC(=O)[C@H](C)N)C(C)C)C(=O)N[C@@H](CCCNC(=N)N)C(=O)N[C@@H](Cc1c[nH]c2ccccc12)C(=O)N[C@@H](Cc1c[nH]c2ccccc12)C(=O)N[C@@H](CO)C(=O)N[C@@H](CCCNC(=N)N)C(=O)N[C@@H](Cc1c[nH]c2ccccc12)C(=O)N[C@@H](Cc1c[nH]c2ccccc12)C(=O)N[C@@H](CCCCN)C(=O)N[C@@H](CCCCN)C(=O)O [AK 15-6] (H-AVKKLLRWWSRWWKK-OH; N-terminus and C-terminus assumed),MIC,[1],37.5 µg/mL
"NNC(=O)c1ccncc1 [INH, isoniazid]",MIC,[2],0.025 µg/mL
same,FIC,[2]; combination INH + D-hLF 1-11,0.48
same,"MIC, Combined",[2]; combination INH + D-hLF 1-11,0.012 µg/mL
same,MIC,[3],0.03 to 0.12 µg/mL
CC(C)C[C@H](NC(=O)[C@H](CCCNC(=N)N)NC(=O)CNC(=O)CNC(=O)[C@@H](N)CCCNC(=N)N)C(=O)N[C@H]1CSSC[C@@H](C(=O)N[C@H](C(=O)NCC(=O)N[C@@H](CCCNC(=N)N)C(N)=O)C(C)C)NC(=O)[C@H](C(C)C)NC(=O)[C@@H]2CSSC[C@H](NC(=O)[C@H](Cc3ccc(O)cc3)NC1=O)C(=O)N[C@@H](CCCNC(=N)N)C(=O)N[C@@H](CCCNC(=N)N)C(=O)N[C@@H](CCCNC(=N)N)C(=O)N[C@@H](Cc1ccccc1)C(=O)N2 [PG-1],percent of mycobacterial growth inhibition,[4],approximately 94.22%
same,percent of mycobacterial growth inhibition,"[5]; 128 µg/mL, ref [3] Fattorini and colleagues",96.7%
same,MIC,"[5]; Plate count assay, ref [3]",128 µg/mL
"CO[C@H]1/C=C/O[C@@]2(C)Oc3c(C)c(O)c4c(O)c(c(/C=N/N5CCN(C)CC5)c(O)c4c3C2=O)NC(=O)/C(C)=C\C=C\[C@H](C)[C@H](O)[C@@H](C)[C@@H](O)[C@@H](C)[C@H](OC(C)=O)[C@@H]1C [RF, rifampicin]",MIC,[2],0.5 µg/mL
same,"MIC, Combined",[2]; combination RF + D-hLF 1-11,0.031 25 µg/mL
same,MIC,[3],0.12 to 0.5 µg/mL
